Test results: ChEMBL document CHEMBL5257079, “Discovery of FXR/PPARγ dual partial agonist” (Bioorg Med Chem, 2023)
Active and inactive are the calls of the source. The rule behind the calls is not given here.

What was measured:
[1] = biological target: T1, Oxysterols receptor LXR-alpha (Homo sapiens) (UniProt Q13133); assay: Activation of LXR alpha (unknown origin) at 10 uM
T1 sequence (whole entry): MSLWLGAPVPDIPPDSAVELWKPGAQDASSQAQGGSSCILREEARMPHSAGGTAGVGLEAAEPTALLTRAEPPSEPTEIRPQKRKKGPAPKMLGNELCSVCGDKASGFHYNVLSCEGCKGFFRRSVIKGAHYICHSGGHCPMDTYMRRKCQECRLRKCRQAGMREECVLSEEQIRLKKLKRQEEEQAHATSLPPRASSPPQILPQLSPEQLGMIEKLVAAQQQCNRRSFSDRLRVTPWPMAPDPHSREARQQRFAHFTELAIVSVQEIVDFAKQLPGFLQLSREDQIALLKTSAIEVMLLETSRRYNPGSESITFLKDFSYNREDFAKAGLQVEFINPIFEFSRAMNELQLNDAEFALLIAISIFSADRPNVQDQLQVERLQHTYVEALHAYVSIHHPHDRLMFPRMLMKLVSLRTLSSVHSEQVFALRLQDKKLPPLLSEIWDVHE

[2] = biological target: T2, Retinoic acid receptor alpha (Homo sapiens) (UniProt P10276); assay: Activation of RARalpha (unknown origin) at 10 uM
T2 sequence (whole entry): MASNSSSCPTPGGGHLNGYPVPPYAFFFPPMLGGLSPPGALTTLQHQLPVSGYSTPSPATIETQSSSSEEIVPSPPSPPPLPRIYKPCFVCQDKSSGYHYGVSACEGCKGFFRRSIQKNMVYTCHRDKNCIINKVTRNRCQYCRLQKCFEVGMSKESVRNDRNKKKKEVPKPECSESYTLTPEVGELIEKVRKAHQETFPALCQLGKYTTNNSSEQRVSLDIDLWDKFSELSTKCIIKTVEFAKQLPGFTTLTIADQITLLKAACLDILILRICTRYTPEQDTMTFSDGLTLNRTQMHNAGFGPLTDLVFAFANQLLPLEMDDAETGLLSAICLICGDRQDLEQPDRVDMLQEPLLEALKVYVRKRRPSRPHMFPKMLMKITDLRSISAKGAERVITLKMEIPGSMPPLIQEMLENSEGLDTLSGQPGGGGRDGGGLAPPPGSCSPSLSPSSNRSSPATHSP

[3] = biological target: T3, Bile acid receptor (Homo sapiens) (UniProt Q96RI1); assay: Antagonist activity at FXR-LBD-GST (unknown origin) in presence of GW4064 relative to control; parameters: scale not given: the % may be the effect or the level left
T3 sequence (whole entry): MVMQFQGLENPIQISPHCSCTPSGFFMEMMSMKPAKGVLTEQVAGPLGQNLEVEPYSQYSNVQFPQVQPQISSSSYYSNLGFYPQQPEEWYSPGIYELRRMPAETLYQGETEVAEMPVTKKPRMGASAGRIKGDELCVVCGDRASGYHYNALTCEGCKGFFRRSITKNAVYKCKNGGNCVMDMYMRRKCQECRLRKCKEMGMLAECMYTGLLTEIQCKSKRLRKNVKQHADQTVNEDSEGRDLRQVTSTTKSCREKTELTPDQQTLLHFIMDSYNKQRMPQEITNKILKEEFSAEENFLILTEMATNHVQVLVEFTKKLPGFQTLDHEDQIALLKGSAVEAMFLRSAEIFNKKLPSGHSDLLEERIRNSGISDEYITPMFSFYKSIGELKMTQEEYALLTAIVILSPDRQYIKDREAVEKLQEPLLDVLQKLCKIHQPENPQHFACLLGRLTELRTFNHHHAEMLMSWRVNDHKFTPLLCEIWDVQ

[4] = biological target: T4, G-protein coupled bile acid receptor 1 (Homo sapiens) (UniProt Q8TDU6); assay: Activation of TGR5 (unknown origin) at 10 uM
T4 sequence (whole entry): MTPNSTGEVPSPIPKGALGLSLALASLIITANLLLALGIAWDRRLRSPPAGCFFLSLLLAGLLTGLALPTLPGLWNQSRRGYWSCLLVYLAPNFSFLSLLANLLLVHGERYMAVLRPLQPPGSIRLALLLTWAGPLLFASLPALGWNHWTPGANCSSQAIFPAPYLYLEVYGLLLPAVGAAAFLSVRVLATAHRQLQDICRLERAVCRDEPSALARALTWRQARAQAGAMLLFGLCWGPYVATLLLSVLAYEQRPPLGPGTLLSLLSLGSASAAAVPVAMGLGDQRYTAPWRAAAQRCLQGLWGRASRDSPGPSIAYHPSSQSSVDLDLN

[5] = biological target: T3, Bile acid receptor (Homo sapiens); assay: Activation of FXR (unknown origin) at 10 uM; details: filed as activator
[6] = biological target: T3, Bile acid receptor (Homo sapiens); assay: Partial agonist activity at FXR in human Huh-7 cells assessed as reduction in CDCA-induced SHP gene expression at 10 uM by RT-PCR analysis; assay type: cell-based; details: filed as partial agonist
[7] = biological target: T5, Oxysterols receptor LXR-beta (Homo sapiens) (UniProt P55055); assay: Activation of LXR beta (unknown origin) at 10 uM
T5 sequence (whole entry): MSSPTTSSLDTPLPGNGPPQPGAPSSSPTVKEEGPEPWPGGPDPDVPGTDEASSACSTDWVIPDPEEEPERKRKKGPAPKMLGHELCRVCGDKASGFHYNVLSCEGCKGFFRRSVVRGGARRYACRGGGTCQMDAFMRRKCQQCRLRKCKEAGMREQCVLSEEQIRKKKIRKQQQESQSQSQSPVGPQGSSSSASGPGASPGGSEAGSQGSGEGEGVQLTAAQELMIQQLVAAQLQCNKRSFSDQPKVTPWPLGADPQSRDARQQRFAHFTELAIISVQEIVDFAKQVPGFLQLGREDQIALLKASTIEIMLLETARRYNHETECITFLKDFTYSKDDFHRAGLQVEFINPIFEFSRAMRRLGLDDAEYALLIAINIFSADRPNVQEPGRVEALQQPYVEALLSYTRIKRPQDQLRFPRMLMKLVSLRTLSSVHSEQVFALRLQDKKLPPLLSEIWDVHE

[8] = biological target: T3, Bile acid receptor (Homo sapiens); assay: Partial agonist activity at FXR in human Huh-7 cells assessed as reduction in CDCA-induced OSTalpha gene expression at 10 uM by RT-PCR analysis; assay type: cell-based; details: filed as partial agonist
[9] = biological target: T6, Peroxisome proliferator-activated receptor delta (Homo sapiens) (UniProt Q03181); assay: Activation of PPARdelta (unknown origin) at 10 uM
T6 sequence (whole entry): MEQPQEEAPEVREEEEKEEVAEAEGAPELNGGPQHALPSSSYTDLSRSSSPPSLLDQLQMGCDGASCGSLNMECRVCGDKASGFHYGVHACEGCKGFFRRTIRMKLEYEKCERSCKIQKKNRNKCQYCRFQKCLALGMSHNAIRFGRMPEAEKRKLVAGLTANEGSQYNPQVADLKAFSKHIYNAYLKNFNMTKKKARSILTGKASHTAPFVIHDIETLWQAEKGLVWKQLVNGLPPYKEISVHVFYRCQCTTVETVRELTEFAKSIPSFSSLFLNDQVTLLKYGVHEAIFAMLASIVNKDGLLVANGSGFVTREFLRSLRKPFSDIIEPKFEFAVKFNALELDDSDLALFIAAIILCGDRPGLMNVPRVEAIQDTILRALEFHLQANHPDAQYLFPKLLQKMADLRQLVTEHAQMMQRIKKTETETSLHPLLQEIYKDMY

CC(C)(C)c1ccc(-n2cnc3c(NC(=O)Cc4ccc(C(=O)O)cc4)cccc32)cc1
Activity [1]: inactive
Activity [2]: inactive
Activity [3]: 30%
Activity [4]: inactive
Activity [5]: Active
Activity [6]: Active
Activity [7]: inactive
Activity [8]: Active
Activity [9]: inactive
